According to US9295682B2, “Adjuvant immunotherapy for the preventive, curative or palliative treatment of chronic systemic diseases such as cancer, of clinical manifestations associated with diseases like cachexia and correction of adverse effects of drugs such as immunosuppression, neutropenia and lymphopenia, comprising …” (priority 2009, dated 2016):
Several values for one entry are separate records, joined by “and”; a condition that tells them apart may be missing. Identical values can stand only once.

Assays:
NF-κB Control cells = assay: Toll-like receptor screening, NF-κB control cells; format: cell-based; settings: TNFα 100 ng/ml
Method: (§1) Samples in three concentrations (0.5 μg/mL, 5 μg/mL, and 50 μg/mL) of the biological response modifier (proteic aggregate of ammonium and magnesium phospholinoleate-palmitoleate anhydride) were dissolved in dimethylsulfoxide (DMSO at 1%) at the concentration of 1% and incubated with 293 TLR cells (HEK293 cells) in microplates, in duplicate, for 20 hours.
(§2) Standard compounds, that is, ligands known for TLR 3 to TLR9 in predetermined concentrations were also incubated in microplates with 293 TLR cells (HEK293 cells) for 20 hours.
(§3) Subsequently, absorbance readings were taken of the microplates […] at 650 nm using a Beckman Coulter AD 340C Absorbance Detector device with three concentrations of the biological response modifier (proteic aggregate of ammonium and magnesium phospholinoleate-palmitoleate anhydride) incubated with the HEK293 cells and readings were also taken of the microplates incubated with the same cells and the control substances, for comparative assessment of the percentage of binding of the aforementioned compounds to toll-like receptors expressed in HEK293 cells.

hTLR7 = biological target: T1, hTLR7 (Homo sapiens, UniProt Q9NYK1); assay: Toll-like receptor binding/stimulation, HEK293 cells expressing hTLR7; format: cell-based; settings: CL097 1 μg/mL
T1 construct: expressed in transfected cells; host or cells: HEK293 (293/hTLR7)
T1 sequence (Q9NYK1 27-1049): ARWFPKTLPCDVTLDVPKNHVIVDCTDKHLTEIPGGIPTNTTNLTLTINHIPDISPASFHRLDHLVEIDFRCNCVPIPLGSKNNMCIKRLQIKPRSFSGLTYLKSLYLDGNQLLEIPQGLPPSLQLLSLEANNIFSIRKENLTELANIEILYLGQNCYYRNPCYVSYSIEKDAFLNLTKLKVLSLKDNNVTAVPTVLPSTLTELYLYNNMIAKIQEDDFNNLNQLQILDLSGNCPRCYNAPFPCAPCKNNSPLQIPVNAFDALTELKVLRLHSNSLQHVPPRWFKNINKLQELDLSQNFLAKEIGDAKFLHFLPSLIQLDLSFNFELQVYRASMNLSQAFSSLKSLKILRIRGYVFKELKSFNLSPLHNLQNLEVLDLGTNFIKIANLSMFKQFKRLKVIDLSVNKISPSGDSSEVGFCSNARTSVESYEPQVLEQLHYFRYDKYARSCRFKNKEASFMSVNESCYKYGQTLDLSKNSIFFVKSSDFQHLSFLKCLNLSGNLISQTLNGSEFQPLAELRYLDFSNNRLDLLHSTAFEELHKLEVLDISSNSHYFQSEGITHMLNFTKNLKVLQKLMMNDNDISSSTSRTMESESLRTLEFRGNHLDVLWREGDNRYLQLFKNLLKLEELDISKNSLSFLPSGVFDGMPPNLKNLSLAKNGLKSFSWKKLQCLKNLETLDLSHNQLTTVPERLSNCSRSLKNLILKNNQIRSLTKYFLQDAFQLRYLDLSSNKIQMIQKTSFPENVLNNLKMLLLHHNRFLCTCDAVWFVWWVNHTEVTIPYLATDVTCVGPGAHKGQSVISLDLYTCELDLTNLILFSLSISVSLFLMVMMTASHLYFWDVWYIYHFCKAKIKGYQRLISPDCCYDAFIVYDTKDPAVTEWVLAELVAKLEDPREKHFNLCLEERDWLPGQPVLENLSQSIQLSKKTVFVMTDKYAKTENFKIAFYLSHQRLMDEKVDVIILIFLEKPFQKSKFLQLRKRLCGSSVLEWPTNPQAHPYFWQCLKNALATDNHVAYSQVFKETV
Method: as §1, §2, §3

metastatic melanoma = settings: high doses of interferon-alpha alone; cited from earlier work
hTLR9 = biological target: T2, hTLR9 (Homo sapiens, UniProt Q9NR96); assay: Toll-like receptor binding/stimulation, HEK293 cells expressing hTLR9; format: cell-based; settings: CpG ODN 2006 1 μg/mL
T2 construct: expressed in transfected cells; host or cells: HEK293 (293/hTLR9)
T2 sequence (Q9NR96 26-1032): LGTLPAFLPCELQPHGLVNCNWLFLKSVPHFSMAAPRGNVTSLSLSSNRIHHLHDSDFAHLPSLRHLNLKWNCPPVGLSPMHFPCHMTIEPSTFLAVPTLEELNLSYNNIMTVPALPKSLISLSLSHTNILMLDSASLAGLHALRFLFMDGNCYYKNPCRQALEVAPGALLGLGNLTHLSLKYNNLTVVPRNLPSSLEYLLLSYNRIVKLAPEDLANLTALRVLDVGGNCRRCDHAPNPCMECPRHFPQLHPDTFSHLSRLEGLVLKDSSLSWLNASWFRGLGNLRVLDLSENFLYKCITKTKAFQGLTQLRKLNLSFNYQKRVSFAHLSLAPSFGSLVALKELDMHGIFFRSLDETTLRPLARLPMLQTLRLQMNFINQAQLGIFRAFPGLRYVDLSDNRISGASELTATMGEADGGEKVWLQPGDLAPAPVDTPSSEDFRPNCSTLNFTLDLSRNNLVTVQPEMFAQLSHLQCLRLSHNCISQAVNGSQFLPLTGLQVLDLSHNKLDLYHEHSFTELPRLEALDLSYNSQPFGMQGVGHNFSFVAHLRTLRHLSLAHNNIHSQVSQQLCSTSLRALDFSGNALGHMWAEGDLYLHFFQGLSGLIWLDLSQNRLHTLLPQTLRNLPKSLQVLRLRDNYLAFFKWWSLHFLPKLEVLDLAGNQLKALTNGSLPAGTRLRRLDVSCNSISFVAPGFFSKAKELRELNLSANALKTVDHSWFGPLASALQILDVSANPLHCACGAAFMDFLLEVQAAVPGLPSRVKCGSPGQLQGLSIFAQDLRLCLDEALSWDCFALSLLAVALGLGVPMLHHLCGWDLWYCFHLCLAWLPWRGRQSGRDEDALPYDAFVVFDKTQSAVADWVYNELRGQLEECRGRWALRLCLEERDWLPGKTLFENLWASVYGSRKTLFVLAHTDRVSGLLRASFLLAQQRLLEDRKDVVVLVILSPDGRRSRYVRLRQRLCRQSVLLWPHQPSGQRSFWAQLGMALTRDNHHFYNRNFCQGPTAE
Method: as §1, §2, §3

hTLR3 = biological target: T3, hTLR3 (Homo sapiens, UniProt O15455); assay: Toll-like receptor binding/stimulation, HEK293 cells expressing hTLR3; format: cell-based; settings: Poly (I: C) 1 μg/mL
T3 construct: expressed in transfected cells; host or cells: HEK293 (293/hTLR3)
T3 sequence (O15455 24-904): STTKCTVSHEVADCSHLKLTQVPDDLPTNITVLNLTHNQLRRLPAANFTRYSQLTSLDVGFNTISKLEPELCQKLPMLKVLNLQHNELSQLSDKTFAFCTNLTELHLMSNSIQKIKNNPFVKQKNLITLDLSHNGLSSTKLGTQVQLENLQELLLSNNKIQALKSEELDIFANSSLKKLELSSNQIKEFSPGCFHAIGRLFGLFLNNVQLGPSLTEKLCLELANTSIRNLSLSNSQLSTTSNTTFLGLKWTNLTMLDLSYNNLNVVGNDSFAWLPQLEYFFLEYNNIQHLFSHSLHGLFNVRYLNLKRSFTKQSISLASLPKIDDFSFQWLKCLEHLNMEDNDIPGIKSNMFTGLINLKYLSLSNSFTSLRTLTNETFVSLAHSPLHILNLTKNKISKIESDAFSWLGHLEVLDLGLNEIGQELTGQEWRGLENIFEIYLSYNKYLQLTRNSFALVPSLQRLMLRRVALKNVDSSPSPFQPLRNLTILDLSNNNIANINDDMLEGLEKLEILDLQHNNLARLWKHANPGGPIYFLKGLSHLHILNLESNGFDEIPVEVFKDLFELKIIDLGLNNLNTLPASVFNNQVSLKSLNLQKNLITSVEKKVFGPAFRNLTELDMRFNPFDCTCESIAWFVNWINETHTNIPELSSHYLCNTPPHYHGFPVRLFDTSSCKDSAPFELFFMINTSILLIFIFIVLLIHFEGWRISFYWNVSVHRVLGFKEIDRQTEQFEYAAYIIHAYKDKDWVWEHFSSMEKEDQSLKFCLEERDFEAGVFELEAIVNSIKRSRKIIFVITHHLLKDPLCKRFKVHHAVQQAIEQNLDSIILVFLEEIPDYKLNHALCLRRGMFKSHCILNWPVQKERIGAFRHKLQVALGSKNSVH
Method: as §1, §2, §3

hTLR8 = biological target: T4, hTLR8 (Homo sapiens, UniProt Q9NR97); assay: Toll-like receptor binding/stimulation, HEK293 cells expressing hTLR8; format: cell-based; settings: CL075 1 μg/mL
T4 construct: expressed in transfected cells; host or cells: HEK293 (293/hTLR8)
T4 sequence (Q9NR97 27-1041): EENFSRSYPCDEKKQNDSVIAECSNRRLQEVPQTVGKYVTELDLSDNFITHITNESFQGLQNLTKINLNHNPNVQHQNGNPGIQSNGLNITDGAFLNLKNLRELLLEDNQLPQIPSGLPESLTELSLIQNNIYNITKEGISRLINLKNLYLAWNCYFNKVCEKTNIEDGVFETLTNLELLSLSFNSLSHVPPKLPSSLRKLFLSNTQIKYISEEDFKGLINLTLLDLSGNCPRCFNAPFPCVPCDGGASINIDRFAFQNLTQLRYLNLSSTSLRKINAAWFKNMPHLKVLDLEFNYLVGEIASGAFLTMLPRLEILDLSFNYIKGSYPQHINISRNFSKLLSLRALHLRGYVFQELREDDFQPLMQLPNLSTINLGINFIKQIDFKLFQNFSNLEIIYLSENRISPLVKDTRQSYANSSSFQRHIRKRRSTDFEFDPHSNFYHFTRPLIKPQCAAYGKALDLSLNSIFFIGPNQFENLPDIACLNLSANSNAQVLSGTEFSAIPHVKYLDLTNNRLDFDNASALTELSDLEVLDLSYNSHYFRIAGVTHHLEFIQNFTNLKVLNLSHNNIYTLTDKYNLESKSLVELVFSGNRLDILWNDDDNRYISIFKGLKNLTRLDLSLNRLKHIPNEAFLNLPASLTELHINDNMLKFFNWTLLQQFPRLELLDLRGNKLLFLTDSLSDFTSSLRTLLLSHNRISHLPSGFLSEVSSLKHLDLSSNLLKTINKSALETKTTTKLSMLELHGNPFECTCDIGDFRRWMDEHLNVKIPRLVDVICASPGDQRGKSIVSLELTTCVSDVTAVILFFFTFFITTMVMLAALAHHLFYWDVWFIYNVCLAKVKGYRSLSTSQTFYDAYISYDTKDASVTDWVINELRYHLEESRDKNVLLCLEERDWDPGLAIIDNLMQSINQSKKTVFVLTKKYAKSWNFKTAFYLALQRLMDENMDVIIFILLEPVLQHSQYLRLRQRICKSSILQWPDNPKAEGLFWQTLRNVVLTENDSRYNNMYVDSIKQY
Method: as §1, §2, §3

hTLR5 = hTLR5 (Homo sapiens, UniProt O60602); assay: Toll-like receptor binding/stimulation, HEK293 cells expressing hTLR5; format: cell-based; settings: S. typhimurium flagellin 100 ng/ml
hTLR5, sequence (O60602 21-858): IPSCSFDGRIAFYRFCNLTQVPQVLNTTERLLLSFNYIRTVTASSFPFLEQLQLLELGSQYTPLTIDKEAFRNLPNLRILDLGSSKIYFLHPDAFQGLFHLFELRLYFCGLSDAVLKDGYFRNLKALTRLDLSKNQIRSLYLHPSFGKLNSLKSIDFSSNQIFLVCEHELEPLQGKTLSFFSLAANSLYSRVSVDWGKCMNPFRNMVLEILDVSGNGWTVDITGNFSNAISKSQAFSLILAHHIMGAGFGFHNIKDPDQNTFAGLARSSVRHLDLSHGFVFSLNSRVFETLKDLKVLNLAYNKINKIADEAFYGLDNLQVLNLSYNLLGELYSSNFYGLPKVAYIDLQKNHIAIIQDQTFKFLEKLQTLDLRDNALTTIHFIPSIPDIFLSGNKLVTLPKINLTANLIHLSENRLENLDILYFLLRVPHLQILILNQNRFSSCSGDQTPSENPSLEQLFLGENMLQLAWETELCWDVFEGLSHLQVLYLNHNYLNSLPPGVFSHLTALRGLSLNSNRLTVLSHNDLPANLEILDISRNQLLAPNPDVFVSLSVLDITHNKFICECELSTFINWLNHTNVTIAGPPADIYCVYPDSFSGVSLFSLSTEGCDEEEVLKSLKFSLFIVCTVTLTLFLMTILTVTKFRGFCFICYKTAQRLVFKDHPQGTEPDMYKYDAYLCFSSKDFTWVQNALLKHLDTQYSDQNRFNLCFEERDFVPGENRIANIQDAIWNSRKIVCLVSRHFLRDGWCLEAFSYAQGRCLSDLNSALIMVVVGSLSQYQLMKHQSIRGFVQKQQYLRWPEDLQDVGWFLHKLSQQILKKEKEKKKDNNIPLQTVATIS
Method: Subsequently, absorbance readings were taken of the microplates by fluorescence at 650 nm using a Beckman Coulter AD 340C Absorbance Detector device with three concentrations of the biological response modifier (proteic aggregate of ammonium and magnesium phospholinoleate-palmitoleate anhydride) incubated with the HEK293 cells and readings were also taken of the microplates incubated with the same cells and the control substances, for comparative assessment of the percentage of binding of the aforementioned compounds to toll-like receptors expressed in HEK293 cells.

TNFα
OD (650 nm), Cells NF-κB Controls, Controls+ (NF-κB Control cells; 20 h, screening 1 and 2): 2.221 OD (650 nm) and 2.042 OD (650 nm) | % ligands (% bindings), Cell NF-κB Controls, Controls (NF-κB Control cells; reference): 100%

CCOCc1nc2c([nH]1)c(N)nc1ccccc12 [CL097]
OD (650 nm), 293/hTLR7 cells, Controls+ (hTLR7; 20 h, screening 1 and 2): 3.222 OD (650 nm) and 3.359 OD (650 nm) | % ligands (% bindings), 293/hTLR7, Controls (hTLR7; reference): 100%

interferon-alpha
response rate (metastatic melanoma): around 20%

CpG ODN 2006
OD (650 nm), 293/hTLR9 cells, Controls+ (hTLR9; 20 h, screening 1 and 2): 2.582 OD (650 nm) and 2.519 OD (650 nm) | % ligands (% bindings), 293/hTLR9, Controls (hTLR9; reference): 100%

Poly (I: C)
OD (650 nm), 293/hTLR3 cells, Controls+ (hTLR3; 20 h, screening 1 and 2): 3.287 OD (650 nm) and 3.440 OD (650 nm) | % ligands (% bindings), 293/hTLR3, Controls (hTLR3; reference): 100%

CCCc1nc2c(N)nc3ccccc3c2s1 [CL075]
OD (650 nm), 293/hTLR8 cells, Controls+ (hTLR8; 20 h, screening 1 and 2): 3.313 OD (650 nm) and 3.338 OD (650 nm) | % ligands (% bindings), 293/hTLR8, Controls (hTLR8; reference): 100%

B1: S. typhimurium flagellin: TLR5 control ligand (protein, UniProt P06179 2-495, looked up)
Flagellin: AQVINTNSLSLLTQNNLNKSQSALGTAIERLSSGLRINSAKDDAAGQAIANRFTANIKGLTQASRNANDGISIAQTTEGALNEINNNLQRVRELAVQSANSTNSQSDLDSIQAEITQRLNEIDRVSGQTQFNGVKVLAQDNTLTIQVGANDGETIDIDLKQINSQTLGLDTLNVQQKYKVSDTAATVTGYADTTIALDNSTFKASATGLGGTDQKIDGDLKFDDTTGKYYAKVTVTGGTGKDGYYEVSVDKTNGEVTLAGGATSPLTGGLPATATEDVKNVQVANADLTEAKAALTAAGVTGTASVVKMSYTDNNGKTIDGGLAVKVGDDYYSATQNKDGSISINTTKYTADDGTSKTALNKLGGADGKTEVVSIGGKTYAASKAEGHNFKAQPDLAEAAATTTENPLQKIDAALAQVDTLRSDLGAVQNRFNSAITNLGNTVNNLTSARSRIEDSDYATEVSNMSRAQILQQAGTSVLAQANQVPQNVLSLLR
OD (650 nm), 293/hTLR5 cells, Controls+ (hTLR5; 20 h, screening 1 and 2): 3.662 OD (650 nm) and 3.798 OD (650 nm) | % ligands (% bindings), 293/hTLR5, Controls (hTLR5; reference): 100%
